Measured values reported in PubChem BioAssay (NCI).
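In this assay, cells in 96-well plates receive the compound at five concentrations for 48 hours. Endpoints are linearly interpolated between the surrounding concentrations. GI50 = concentration required for 50% inhibition of growth. At the TGI there is no net growth.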

Assays:
Assay in all cases: NCI anticancer screen, dose series, 48 h
786-0 renal = test system: 786-0 renal
A498 renal = test system: A498 renal
A549 NSCLC = test system: A549 NSCLC
ACHN renal = test system: ACHN renal
BT-549 breast = test system: BT-549 breast
CCRF-CEM leukemia = test system: CCRF-CEM leukemia
COLO 205 colon = test system: COLO 205 colon
DU-145 prostate = test system: DU-145 prostate
EKVX NSCLC = test system: EKVX NSCLC
HCC-2998 colon = test system: HCC-2998 colon
HCT-116 colon = test system: HCT-116 colon
HCT-15 colon = test system: HCT-15 colon
HL-60(TB) leukemia = test system: HL-60(TB) leukemia
HOP-62 NSCLC = test system: HOP-62 NSCLC
HOP-92 NSCLC = test system: HOP-92 NSCLC
HS 578T breast = test system: HS 578T breast
HT29 colon = test system: HT29 colon
IGROV1 ovarian = test system: IGROV1 ovarian
K-562 leukemia = test system: K-562 leukemia
KM12 colon = test system: KM12 colon
LOX IMVI melanoma = test system: LOX IMVI melanoma
M14 melanoma = test system: M14 melanoma
MALME-3M melanoma = test system: MALME-3M melanoma
MCF7 breast = test system: MCF7 breast
MDA-MB-231 breast = test system: MDA-MB-231 breast
MDA-MB-435 = test system: MDA-MB-435
MOLT-4 leukemia = test system: MOLT-4 leukemia
NCI-H226 lung = test system: NCI-H226 lung
NCI-H23 lung = test system: NCI-H23 lung
NCI-H460 lung = test system: NCI-H460 lung
NCI-H522 lung = test system: NCI-H522 lung
NCI/ADR-RES ovarian = test system: NCI/ADR-RES ovarian
OVCAR-3 ovarian = test system: OVCAR-3 ovarian
OVCAR-4 ovarian = test system: OVCAR-4 ovarian
OVCAR-5 ovarian = test system: OVCAR-5 ovarian
OVCAR-8 ovarian = test system: OVCAR-8 ovarian
PC-3 prostate = test system: PC-3 prostate
RPMI-8226 leukemia = test system: RPMI-8226 leukemia
RXF 393 renal = test system: RXF 393 renal
SF-268 CNS = test system: SF-268 CNS
SF-295 CNS = test system: SF-295 CNS
SF-539 CNS = test system: SF-539 CNS
SK-MEL-2 melanoma = test system: SK-MEL-2 melanoma
SK-MEL-28 melanoma = test system: SK-MEL-28 melanoma
SK-MEL-5 melanoma = test system: SK-MEL-5 melanoma
SK-OV-3 ovarian = test system: SK-OV-3 ovarian
SN12C renal = test system: SN12C renal
SNB-19 CNS = test system: SNB-19 CNS
SNB-75 CNS = test system: SNB-75 CNS
SR leukemia = test system: SR leukemia
SW-620 colon = test system: SW-620 colon
T-47D breast = test system: T-47D breast
TK-10 renal = test system: TK-10 renal
U251 CNS = test system: U251 CNS
UACC-257 melanoma = test system: UACC-257 melanoma
UACC-62 melanoma = test system: UACC-62 melanoma
UO-31 renal = test system: UO-31 renal

Compound: Cn1ncc(NC(=O)c2nc(-c3c(F)cccc3F)sc2N)c1N1CC[C@@H](N)[C@H](F)CC1
- GI50 (786-0 renal): 3.75 µM
- TGI (786-0 renal): 20.8 µM
- GI50 (A498 renal): 1.17 µM
- TGI (A498 renal): 7.55 µM
- GI50 (A549 NSCLC): 4.83 µM
- TGI (A549 NSCLC): 25.6 µM
- GI50 (ACHN renal): 2.67 µM
- TGI (ACHN renal): 16.7 µM
- GI50 (BT-549 breast): 2.39 µM
- TGI (BT-549 breast): 16.5 µM
- GI50 (CCRF-CEM leukemia): 4.55 µM
- TGI (CCRF-CEM leukemia): > 100 µM
- GI50 (COLO 205 colon): 3.33 µM
- TGI (COLO 205 colon): 16.7 µM
- GI50 (DU-145 prostate): 5.19 µM
- TGI (DU-145 prostate): 42.6 µM
- GI50 (EKVX NSCLC): 2.95 µM
- TGI (EKVX NSCLC): 50.7 µM
- GI50 (HCC-2998 colon): 14.2 µM
- TGI (HCC-2998 colon): 35.2 µM
- GI50 (HCT-116 colon): 4.33 µM
- TGI (HCT-116 colon): 60.3 µM
- GI50 (HCT-15 colon): 3.86 µM
- TGI (HCT-15 colon): 28.7 µM
- GI50 (HL-60(TB) leukemia): 4.22 µM
- TGI (HL-60(TB) leukemia): 17.3 µM
- GI50 (HOP-62 NSCLC): 3.56 µM
- TGI (HOP-62 NSCLC): 22.8 µM
- GI50 (HOP-92 NSCLC): 4.12 µM
- TGI (HOP-92 NSCLC): 31.3 µM
- GI50 (HS 578T breast): 2.99 µM
- TGI (HS 578T breast): 14.8 µM
- GI50 (HT29 colon): 5.58 µM
- TGI (HT29 colon): 27.5 µM
- GI50 (IGROV1 ovarian): 2.88 µM
- TGI (IGROV1 ovarian): 19.8 µM
- GI50 (K-562 leukemia): 3.45 µM
- TGI (K-562 leukemia): 28 µM
- GI50 (KM12 colon): 12.4 µM
- TGI (KM12 colon): 54.1 µM
- GI50 (LOX IMVI melanoma): 5.71 µM
- TGI (LOX IMVI melanoma): 21 µM
- GI50 (M14 melanoma): 3.03 µM
- TGI (M14 melanoma): 18.5 µM
- GI50 (MALME-3M melanoma): 5.18 µM
- TGI (MALME-3M melanoma): 21 µM
- GI50 (MCF7 breast): 2.8 µM
- TGI (MCF7 breast): 13.9 µM
- GI50 (MDA-MB-231 breast): 6.93 µM
- TGI (MDA-MB-231 breast): 31 µM
- GI50 (MDA-MB-435): 3.61 µM
- TGI (MDA-MB-435): 19.4 µM
- GI50 (MOLT-4 leukemia): 3.54 µM
- TGI (MOLT-4 leukemia): 30.5 µM
- GI50 (NCI-H226 lung): 1.74 µM
- TGI (NCI-H226 lung): 27 µM
- GI50 (NCI-H23 lung): 11.4 µM
- TGI (NCI-H23 lung): 34.4 µM
- GI50 (NCI-H460 lung): 5.02 µM
- TGI (NCI-H460 lung): 21.2 µM
- GI50 (NCI-H522 lung): 2.67 µM
- TGI (NCI-H522 lung): 14.9 µM
- GI50 (NCI/ADR-RES ovarian): 20.5 µM
- TGI (NCI/ADR-RES ovarian): > 89.8 µM
- GI50 (OVCAR-3 ovarian): 11.1 µM
- TGI (OVCAR-3 ovarian): 31.3 µM
- GI50 (OVCAR-4 ovarian): 4.17 µM
- TGI (OVCAR-4 ovarian): 44.3 µM
- GI50 (OVCAR-5 ovarian): 16.5 µM
- TGI (OVCAR-5 ovarian): 54.6 µM
- GI50 (OVCAR-8 ovarian): 8.65 µM
- TGI (OVCAR-8 ovarian): 37.1 µM
- GI50 (PC-3 prostate): 3.6 µM
- TGI (PC-3 prostate): 32 µM
- GI50 (RPMI-8226 leukemia): 2.54 µM
- TGI (RPMI-8226 leukemia): 29.3 µM
- GI50 (RXF 393 renal): 2.98 µM
- TGI (RXF 393 renal): 15.3 µM
- GI50 (SF-268 CNS): 3.27 µM
- TGI (SF-268 CNS): 32.6 µM
- GI50 (SF-295 CNS): 8.75 µM
- TGI (SF-295 CNS): 24 µM
- GI50 (SF-539 CNS): 3.85 µM
- TGI (SF-539 CNS): 15.3 µM
- GI50 (SK-MEL-2 melanoma): 3.45 µM
- TGI (SK-MEL-2 melanoma): 13.5 µM
- GI50 (SK-MEL-28 melanoma): 10.4 µM
- TGI (SK-MEL-28 melanoma): 25.6 µM
- GI50 (SK-MEL-5 melanoma): 4.77 µM
- TGI (SK-MEL-5 melanoma): 17.8 µM
- GI50 (SK-OV-3 ovarian): 1.42 µM
- TGI (SK-OV-3 ovarian): 6 µM
- GI50 (SN12C renal): 3.69 µM
- TGI (SN12C renal): 43.3 µM
- GI50 (SNB-19 CNS): 26.3 µM
- TGI (SNB-19 CNS): 86.5 µM
- GI50 (SNB-75 CNS): 1.06 µM
- TGI (SNB-75 CNS): 8.83 µM
- GI50 (SR leukemia): 2.37 µM
- TGI (SR leukemia): 25 µM
- GI50 (SW-620 colon): 3.65 µM
- TGI (SW-620 colon): 24.8 µM
- GI50 (T-47D breast): 3.34 µM
- TGI (T-47D breast): 34.2 µM
- GI50 (TK-10 renal): 2.81 µM
- TGI (TK-10 renal): 41.7 µM
- GI50 (U251 CNS): 8.54 µM
- TGI (U251 CNS): 23.9 µM
- GI50 (UACC-257 melanoma): 14.4 µM
- TGI (UACC-257 melanoma): 30.6 µM
- GI50 (UACC-62 melanoma): 5.33 µM
- TGI (UACC-62 melanoma): 25.2 µM
- GI50 (UO-31 renal): 1.24 µM
- TGI (UO-31 renal): 5.67 µM
